Measurements published in US20130123481A1, “MODIFIED NUCLEOSIDES, NUCLEOTIDES, AND NUCLEIC ACIDS, AND USES THEREOF” (MODERNA THERAPEUTICS, priority 2011, published 2013).

How the values were obtained:
[1] = test system: peripheral blood mononuclear cells (PBMC); assay: In Vitro Screening in PBMC - G-CSF protein expression; format: cell-based, human; conditions: 500 ng mRNA
Text: The supernatant was harvested and stored frozen until analyzed by ELISA to determine the G-CSF protein expression, and the induction of the cytokines interferon-alpha (IFN-α) and tumor necrosis factor alpha (TNF-α).

[2] = test system: human embryonic kidney 293 (HEK293) cells; assay: Toxicity of Nucleoside Triphosphates (NTPs), CYTO TOX-GLO assay; format: cell-based; conditions: human
Description: The cytotoxicity of natural and modified nucleoside triphosphates (NTPs) alone or in combination with other bases, was analyzed in human embryonic kidney 293 (HEK293) cells in the absence of transfection reagent. […] 10 ul of the NTPs outlined in Table 12 were combined with 10 ul of lipid dilution and incubated for 30 minutes to form a complex before 80 ul of the HEK293 cell suspension was added to the NTP complex. Natural and modified NTPs were transfected at a concentration of 2.1 nM, 21 nM, 210 nM, 2.1 um, 21 uM, 210 um or 2.1 mM. NTPs in combination were transfected at a total concentration of NTPs of 8.4 nM, 84 nM, 840 nM, 8.4 uM, 84 uM, 840 uM and 8.4 mM.

Structure (SMILES) | percent of viable cells ([2]; 4 h, 2.1 nM) | percent of viable cells ([2]; 4 h, 21 nM) | percent of viable cells ([2]; 4 h, 210 nM) | percent of viable cells ([2]; 4 h, 2.1 uM) | percent of viable cells ([2]; 4 h, 21 uM) | percent of viable cells ([2]; 4 h, 210 uM) | percent of viable cells ([2]; 4 h, 2.1 mM) | percent of viable cells ([2]; 24 h, 2.1 nM) | percent of viable cells ([2]; 24 h, 21 nM) | percent of viable cells ([2]; 24 h, 210 nM) | percent of viable cells ([2]; 24 h, 2.1 uM) | percent of viable cells ([2]; 24 h, 21 uM) | percent of viable cells ([2]; 24 h, 210 uM) | percent of viable cells ([2]; 24 h, 2.1 mM) | percent of viable cells ([2]; 48 h, 2.1 nM) | percent of viable cells ([2]; 48 h, 21 nM) | percent of viable cells ([2]; 48 h, 210 nM) | percent of viable cells ([2]; 48 h, 2.1 uM) | percent of viable cells ([2]; 48 h, 21 uM) | percent of viable cells ([2]; 48 h, 210 uM) | also measured
COC(=O)C=Cc1cn([C@@H]2O[C@H](CO)[C@@H](O)[C@H]2O)c(=O)[nH]c1=O [5-(2-carbomethoxyvinyl)uridine] | – | – | – | – | – | – | – | – | – | – | – | – | – | – | – | – | – | – | – | – | G-CSF Protein Expression ([1]; PBMC Donor 1, 0.4 uL Lipofectamine 2000): 77 pg/mL; G-CSF Protein Expression ([1]; PBMC Donor 2): 286 pg/mL; G-CSF Protein Expression ([1]; PBMC Donor 3): 177 pg/mL
Nc1nc2nc[nH]c2c(=O)[nH]1 [Guanine] | 93.33% | 92.84% | 90.00% | 90.60% | 91.36% | 90.14% | 90.96% | 85.41% | 85.50% | 86.35% | 86.13% | 85.93% | 85.86% | 86.37% | 89.57% | 87.92% | 85.31% | 87.89% | 88.18% | 87.05% | percent of viable cells ([2]; 48 h, 2.1 mM): 93.83%; percent of viable cells ([2]; 72 h, 2.1 nM): 93.72%; percent of viable cells ([2]; 72 h, 21 nM): 92.55%; percent of viable cells ([2]; 72 h, 210 nM): 92.19%; percent of viable cells ([2]; 72 h, 2.1 uM): 92.30%; percent of viable cells ([2]; 72 h, 21 uM): 92.39%; percent of viable cells ([2]; 72 h, 210 uM): 91.41%; percent of viable cells ([2]; 72 h, 2.1 mM): 97.04%
Cc1c[nH]c(=O)nc1N [5-methyl cytosine] | 92.23% | 91.40% | 92.31% | 91.31% | 91.16% | 91.54% | 92.01% | 86.35% | 86.37% | 84.71% | 85.14% | 84.72% | 85.76% | 87.97% | 88.18% | 87.10% | 86.44% | 86.18% | 85.74% | 85.94% | percent of viable cells ([2]; 48 h, 2.1 mM): 87.29%; percent of viable cells ([2]; 72 h, 2.1 nM): 91.93%; percent of viable cells ([2]; 72 h, 21 nM): 92.10%; percent of viable cells ([2]; 72 h, 210 nM): 89.97%; percent of viable cells ([2]; 72 h, 2.1 uM): 90.92%; percent of viable cells ([2]; 72 h, 21 uM): 92.26%; percent of viable cells ([2]; 72 h, 210 uM): 88.10%; percent of viable cells ([2]; 72 h, 2.1 mM): 96.08%
O=c1cc[nH]c(=O)[nH]1 [Uracil] | 93.15% | 92.90% | 91.05% | 90.90% | 91.95% | 89.60% | 90.97% | 87.63% | 87.23% | 86.52% | 86.75% | 85.89% | 86.48% | 87.68% | 91.28% | 88.89% | 88.33% | 89.44% | 89.11% | 88.98% | percent of viable cells ([2]; 48 h, 2.1 mM): 94.39%; percent of viable cells ([2]; 72 h, 2.1 nM): 95.51%; percent of viable cells ([2]; 72 h, 21 nM): 94.53%; percent of viable cells ([2]; 72 h, 210 nM): 94.50%; percent of viable cells ([2]; 72 h, 2.1 uM): 94.60%; percent of viable cells ([2]; 72 h, 21 uM): 93.63%; percent of viable cells ([2]; 72 h, 210 uM): 93.45%; percent of viable cells ([2]; 72 h, 2.1 mM): 96.82%
Nc1ncnc2nc[nH]c12 [Adenine] | 93.48% | 93.21% | 90.36% | 90.23% | 91.20% | 85.97% | 90.03% | 86.44% | 87.19% | 86.94% | 86.81% | 86.86% | 87.31% | 88.42% | 92.12% | 91.13% | 89.17% | 89.80% | 89.94% | 90.55% | percent of viable cells ([2]; 48 h, 2.1 mM): 93.71%; percent of viable cells ([2]; 72 h, 2.1 nM): 95.74%; percent of viable cells ([2]; 72 h, 21 nM): 93.88%; percent of viable cells ([2]; 72 h, 210 nM): 92.22%; percent of viable cells ([2]; 72 h, 2.1 uM): 94.58%; percent of viable cells ([2]; 72 h, 21 uM): 93.83%; percent of viable cells ([2]; 72 h, 210 uM): 94.81%; percent of viable cells ([2]; 72 h, 2.1 mM): 97.49%
